{"source": "patent US12493042B2", "about": "“Molecules and methods for iterative polypeptide analysis and processing” (priority 2013, dated 2025)", "key": {"[1]": {"molecular_target": "Edmanase (Edman degradation enzyme; Trypanosoma cruzi cruzain variant C25G/G65S/A138C/L160Y, SEQ ID NO: 29) (Trypanosoma cruzi, UniProt P25779, A260C/A295H/A296K/C147G/E217T/G187S/G216A/L282Y/N191D/Q141S/Q281S/S151A)", "assay_type": "biochemical", "details": "Ed-X-AMC (PITC-derivatized) substrate; 30 degrees; 1 nM-100 nM enzyme; excitation 370 nm, emission 460 nm", "from_the_text": "(§1) A synthetic gene containing the Edman degradation enzyme was purchased from GenScript. The gene encoded a modified version of the cruzian enzyme of T. cruzi having the following substitution mutations: C25G, G65S, A138C, and L160Y.\n(§2) The gene was inserted between an NdeI andan XhoI site in a pet42(a) (Novagen) expression vector and transformed into E. coli, BL-21(De3) chemically competent cells. Protein was then over-expressed following Studier's auto-induction protocol. Bacterial cells were harvested by centrifugation of the cell culture at 5000 rpm and 4° C. for 10 minutes. Cells were then suspended in 1×PBS with 10% glycerol and 6M guanidine chloride, pH 7.4. Cells were then lysed by sonication (15 seconds at 20% power, 8 times on ice). The cell lysate was centrifuged at 18000 rpm, 4 degrees for 20 minutes. The supernatant was then filtered through a 0.2 μm cellulose acetate filter. The filtered lysate was loaded onto a 5 mL HisTrap (Ni-NTA) column and washed with 5 column volumes of binding buffer (50 mM Tris-HCl, 150 mM NaCl, 6M guanidine chloride, 25 mM imidazole). Bound protein was then eluted in 50 mM Tris-HCl, 150 mM NaCl, 6M guanidine chloride, 500 mM imidazole. Purified fractions were prepared for SDS-PAGE analysis by mixing 2 parts sample with 1 part 4× loading dye. Samples were analyzed on 16% SDS-PAGE precast gels, and visualized by Coomassie staining. The purified protein was then refolded by successive, overnight dialyses into 1×PBS containing 5M, 3M, 1M, 0.5M, and 0M guanidine chloride. Protein concentration was determined using the calculated molar extinction coefficient and measuring the A280 on an ND-8000 spectrophotometer (Thermo Fisher Scientific).\n(§3) Single amino acid, aminomethylcoumarin (AMC) containing compounds were obtained from BAChem (Bubendorf, Switzerland). These included Arg-AMC, Asn-AMC, Phe-AMC, Met-AMC, Ala-AMC, and Pro-AMC. Phenylisothiocyanate (PITC) was purchased from Thermo-scientific and coupled to the N-terminus of each substrate by incubating for 10 minutes at room temperature in a 100 μL solution of acetonitrile:pyridine:water (10:5:3) with 5 μL of PITC. The derivatized substrate was then dried by rotary evaporation and suspended in 250 μL of 1× Phosphate Buffered Saline (PBS). Inhibitor compound, 1-(2-anilino-5-methyl-1,3-thiazol-4-yl)-ethanone, was ordered from Sigma-Aldrich (St. Louis, MO).\n(§4) The ability of the Edman degradation enzyme to perform N-terminal cleavage on six substrates of the form Ed-X-AMC, where Ed denotes the Edman reagent, X is an amino acid from the set (Ala, […], Phe, Met, Pro, Arg), and AMC is the fluorogenic […] group was characterized. Cleavage of the X-AMC bond was monitored by the appearance of fluorescence (FIG. 6).\n(§5) All kinetic measurements were performed in a 96-well corning plate on a BioTek Synergy2 plate reader at 30 degrees. Reactions were started by adding 5-20 μL of purified enzyme to 100 μL of 10 mM substrate solution. Final enzyme concentration was between 1 nM and 100 nM, depending on the experiment. Fluorescence of the cleaved product was measured by exciting at 370 nm (30 second intervals for 1-10 hours) and monitoring emissions at 460 nm. A standard curve using AMC from Invitrogen was referenced quantitate the amount of product formation."}, "[2]": {"test_system": "Cc1cc(=O)oc2cc(NC(=O)[C@H](CCCNC(=N)N)NC(=S)Nc3ccccc3)ccc12", "assay": "purified protein, by the assay type", "assay_type": "biochemical, Trypanosoma cruzi", "details": "other: Ed-X-AMC (PITC-derivatized) substrate; 30 degrees; 1 nM-100 nM enzyme; excitation 370 nm, emission 460 nm; pH 7.4; 30.0 °C", "from_the_text": "as §1, §2, §3, §4, §5"}, "[3]": {"test_system": "Cc1cc(=O)oc2cc(NC(=O)[C@H](Cc3ccccc3)NC(=S)Nc3ccccc3)ccc12", "assay": "purified protein, by the assay type", "assay_type": "biochemical, Trypanosoma cruzi", "details": "other: Ed-X-AMC (PITC-derivatized) substrate; 30 degrees; 1 nM-100 nM enzyme; excitation 370 nm, emission 460 nm; pH 7.4; 30.0 °C", "from_the_text": "as §1, §2, §3, §4, §5"}, "[4]": {"molecular_target": "T1, Edmanase (Edman degradation enzyme, modified cruzain) (Trypanosoma cruzi, UniProt P25779, A260C/C147G/G187S/L282Y)", "T1 construct": "His tag; made in house; host or cells: E. coli BL-21(De3), pet42(a)", "assay_type": "biochemical", "details": "PITC-derivatized X-AMC substrate, 30 degrees, excitation 370 nm, emission 460 nm", "protocol": "as §3, with “(PBS).” for “(PBS). Inhibitor compound, 1-(2-anilino-5-methyl-1,3-thiazol-4-yl)-ethanone, was ordered from Sigma-Aldrich (St. Louis, MO).”\nas §4, §5"}, "peptides": {"molecular_target": "T2, peptides (Thermus thermophilus, UniProt Q5SGX2, A229N/A231G/F152V/F205A/F336A/G338T/H142N/H143G/H212A/H232D/H287G/I228V/K234Y/K289N/L100D/L154K/L165D/L303D/L340G/M230E/W153G/Y257T)", "T2 construct": "a truncated version of wild-type Thermus Thermophilus PheRS (residues 86-350)", "T2 sequence (Q5SGX2 other isoform, or with tags, fused parts or gaps with the stated changes)": "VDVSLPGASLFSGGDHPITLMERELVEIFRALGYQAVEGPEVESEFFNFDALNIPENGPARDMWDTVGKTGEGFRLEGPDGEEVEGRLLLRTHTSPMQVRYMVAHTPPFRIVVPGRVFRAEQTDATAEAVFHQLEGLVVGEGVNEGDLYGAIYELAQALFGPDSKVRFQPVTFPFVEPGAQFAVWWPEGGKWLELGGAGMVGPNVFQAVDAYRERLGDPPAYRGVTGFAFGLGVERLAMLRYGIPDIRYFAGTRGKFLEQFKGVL", "assay": "Binding of Phe NAAB mutant to peptides compared with wild-type protein"}, "[5]": {"molecular_target": "N-terminal amino acid of peptides", "assay": "Biolayer interferometry binding assays between peptides and purified NAABs", "details": "1×PBS; dissociation rate constant divided by association rate constant, 1:1 model; read-out: Measured Affinity Constants", "method": "Real time binding assays between peptides and purified NAABs were performed using biolayer interferometry on a Blitz system (Fortebio, Menlo Park, CA). This system monitors interference of light reflected from the surface of a fiber optic sensor to measure the thickness of molecules bound to the sensor surface. Sensors coated with peptides were allowed to bind to the NAABs in 1×PBS at several different protein concentrations. Binding kinetics were calculated using the Blitz software package, which fit the observed binding curves to a 1:1 binding model to calculate the association rate constants. NAABs were allowed to dissociate by incubation of the sensors in 1×PBS. Dissociation curves were fit to a 1:1 model to calculate the dissociation rate constants. Binding affinities were calculated as the kinetic dissociation rate constant divided by the kinetic association rate constant.\nEach square in the binding matrix represents the binding affinity for a single NAAB with an N-terminal amino acid as measured by biolayer interferometry. Each row in the matrix contains all the binding data for a single NAAB, and each column contains the binding data for a single N-terminal amino acid (shown by single-letter code)."}}, "data": [{"molecule": "CSCC[C@H](NC(=S)Nc1ccccc1)C(=O)Nc1ccc2c(C)cc(=O)oc2c1", "note": "[Methionine]", "values": [{"measurement": "Kcat", "setting": "[1]", "value": 0.54, "unit": "s⁻¹"}, {"measurement": "Km", "setting": "[1]", "value": 272, "unit": "µM"}]}, {"molecule": "Edmanase (Edman degradation enzyme; Trypanosoma cruzi cruzain variant C25G/G65S/A138C/L160Y, SEQ ID NO: 29) (Trypanosoma cruzi; A260C/A295H/A296K/C147G/E217T/G187S/G216A/L282Y/N191D/Q141S/Q281S/S151A)", "values": [{"measurement": "Km", "setting": "[2]", "value": 167.8, "unit": "µM"}, {"measurement": "Km", "setting": "[3]", "value": 122.8, "unit": "µM"}, {"measurement": "kcat", "setting": "[3]", "value": 0.47, "unit": "s⁻¹"}, {"measurement": "kcat/Km", "setting": "[3]", "value": 3800, "unit": "M⁻¹ s⁻¹"}]}, {"molecule": "C[C@H](N)C(=O)O", "note": "[Alanine]", "values": [{"measurement": "Kcat", "setting": "[4]", "value": 0.55, "unit": "s⁻¹"}, {"measurement": "Km", "setting": "[4]", "value": 21.3, "unit": "µM"}]}, {"molecule": "N[C@@H](Cc1ccccc1)C(=O)O", "note": "[Phenylalanine]", "values": [{"measurement": "binding to peptides compared to the wild-type protein", "setting": "peptides", "value": "Tighter binding"}]}, {"molecule": "O=C(O)[C@@H]1CCCN1", "note": "[Proline]", "values": [{"measurement": "Kcat", "setting": "[4]", "value": 0.0014, "unit": "s⁻¹"}, {"measurement": "Km", "setting": "[4]", "value": 252, "unit": "µM"}]}, {"molecule": "Cc1cc(=O)oc2cc(NC(=O)[C@H](CCCNC(=N)N)NC(=S)Nc3ccccc3)ccc12", "note": "[Arginine]", "values": [{"measurement": "Kcat", "setting": "[1]", "value": 0.087, "unit": "s⁻¹"}]}, {"molecule": "Glutamate", "values": [{"measurement": "Kd", "setting": "[5]", "value": 2120, "unit": "nM"}]}]}
